# Literature values, collected in patent US10813968B2, “Method of treating a human suffering from post exercise muscle soreness” (Provexis Natural Products Limited, priority 2012, dated 2020).
# Conditions: 3 hours after supplementation supplying 200 μg folic acid
smiles,measurement,value
Nc1nc2ncc(CNc3ccc(C(=O)N[C@@H](CCC(=O)O)C(=O)O)cc3)nc2c(=O)[nH]1 [folic acid],typical plasma folate concentration,5 ng/mL
